# Source: patent publication US20200282009A1, “METHODS OF TREATING DISEASES ASSOCIATED WITH VASCULAR SMOOTH MUSCLE CELL PROLIFERATION” (BioLineRx Ltd., priority 2017, published 2020)
# [ ]: non-standard residue; d: D form. The star is where a group is joined. Benzoyl(4-F) = O=C(c1ccc(F)cc1)*; Cit = NC(=O)NCCC[C@H](N)C(=O)O
# Legend:
# SK-N-BE(2) cells [1] = assay: Cell survival assay (PI staining, FACS); assay type: cell-based, human; conditions: BL-8040 0-20 μM or AMD3100 10 and 20 μM, 24 hours
# Method: (§1) A total of 1×10^5 cells/mL were cultured in 24-well plates with […] RPMI 1640 medium supplemented with 10% FCS. 24 hours later, the medium was changed to RPMI 1640 supplemented with either 1% FCS, with BL-8040 or AMD3100 or ABT199. Then 24 hours later, the cells were harvested, washed, and stained with PI (Sigma). The number of live cells was counted and analyzed using FACS analysis.
# Shy-SY5Y cells [2] = assay: Cell survival assay (PI staining, FACS); assay type: cell-based, human; conditions: BL-8040 0-20 μM or AMD3100 10 and 20 μM, 24 hours
# Method: as §1
# SK-N-BE(2) cells [3] = assay: Soft agar colony assay; assay type: cell-based, human; conditions: BL-8040 20 μM or anti-CXCR4 1 μg/ml, 14 days
# Method: (§2) An agar base layer was prepared as follows: 45 mL RPMI plus 12% FCS was mixed with 15 mL RPMI 32 plus 12% FCS and 15 mL 2.5% agar in double-distilled water. The tumor cells were suspended in RPMI plus 10% FCS. Cell suspension was mixed in a ratio of 1:3 with the agar base solution. This mixture was then plated on top of a preformed solid agar base. CXCL12 (100 ng/mL) or BL-8040 (20 μM) or anti-CXCR4 (1 μg/ml) were added to the mixture. Fourteen days later, the number of colonies was counted in 10 different fields.
# Shy-SY5Y cells [4] = assay: Soft agar colony assay; assay type: cell-based, human; conditions: BL-8040 20 μM or anti-CXCR4 1 μg/ml, 14 days
# Method: as §2
# miR-15a, DLEU2 = assay: Gene expression array of xenograft tumors; assay type: in vivo, NSG mice; conditions: treated vs un-treated tumors
# Text: RNA was isolated from tumors and subjected to gene expression profiling using GeneChip human Gene 1.0 ST Array (Affymetrix). The gene expression values were extracted using the Partek Genomics Suite 6.6 software and, after thresholding and filtering procedures, were submitted to fold change and cluster analyses (Gene Expression Omnibus [GEO] GSE94426).
# (§3) Human SK-N-BE(2) cells were orthotopically injected into the left adrenal gland of 6-8 weeks old NSG mice. A 27-gauge needle was introduced through the left adrenal fat pad and 5×10∧5 cells/20 μl PBS were inoculated to the adrenal gland. NSG mice were maintained under defined flora conditions at the Hebrew University Pathogen-Free Animal Facility. Tumor growth and volume were monitored bi-weekly by using T2-weighted MRI until tumors reached the ethical limit volume and mice were randomized to drug-treated or control mice. Mice in the treated group were subjected to 2 treatment protocols. In the first treatment protocol BL-8040 (400 μg) was injected daily, starting three days following inoculation, and was continued for 35 days. In the second treatment protocol mice were monitored for 21 days. As of day 7, mice were treated with a daily injection of BL-8040 (400 μg) for 14 consecutive days.
# [5] = test system: miR-15a, miR-16-1, BCL-2, CCND1; assay: qPCR of RNA from xenograft tumors; assay type: in vivo, NSG mice; conditions: treated vs un-treated tumors
# Method: Total RNA from various cell lines and mouse tissues was isolated using Trizol reagent (Invitrogen) according to the manufacture's protocol, followed by DNaseI treatment using the DNaseI Kit where needed (Ambion). The concentrations were measured by Nanodrop (ND spectrophotometer) and the integrity was analyzed by gel electrophoreses on 1% agarose gel.
# cDNA was synthesized from 0.5-1 μg total RNA using the Quanta Biosciences qScript™ cDNA Synthesis Kit (95047-100) for mRNA analysis, and using the qScript™ microRNA cDNA Synthesis Kit (95107-100) for miRNAs analysis. Quantiative PCR (qPCR) of miRNAs and mRNA was performed using the CFX384, C1000 touch thermal cycler (Bio-Rad) and a SYBR Green PCR Kit: Quanta Cat. #84018 and #84071, respectively. The fold expression and statistical significance were calculated using the 2-ΔΔ Ct method. All experiments were performed in triplicate.
# as §3
# [6] = test system: BCL-2, cycD1, pERK in SK-N-BE(2) cells; assay: Western blot analysis of treated cells; assay type: cell-based, human; conditions: 20 μM, 24 hours
# Method: SK-N-BE(2) cells were seeded into a 12-well plate at 2×10^5/1 ml of medium per well. The cells were incubated for 48 hours and supernatants were collected. For whole cells: tumor samples and cells were lysed by the addition of lysis buffer containing 50 mM Tris-HCl PH 7.6, 150 mM NaCl, 5 mM EDTA pH 8, 0.5% NP40 and protease inhibitor cocktail (Roche Diagnostics). Lysate was incubated with buffer for 15-20 minutes and then centrifuges at 14,000 rpm, 15 min, at 4° C. Protein amounts were determined by Bradford assay (Bio-Rad).
# Protein extracts were equally loaded onto 10% SDS-polyacrylamide gel, electrophorized and transferred onto a polyvinylidenedifluoride (PVDF) membrane (Bio-Rad Laboratories). Then, membranes were blocked and incubated with primary specific antibody O.N. at 4° C. For BCL-2 mouse monoclonal (Abcam). For cycD1 rabbit monoclonal (Thermo). For pERK1/2 rabbit monoclonal (Cell signaling). For β-Actin mouse monoclonal (MP biomedicals). After the washing procedure (3 times, 10 min in washing solution), the membrane was incubated with a secondary immunopure HRP-conjugated antibody, anti-mouse or anti rabbit (Envision; Dako) (1/10,000), washed (5 times, 6 min) and detected with the EZ-ECL kit (Biological Industries). Photon emission was identified by ChemiDoc MP imaging system (Bio-Rad). Intensities of protein bands were quantified by computerized densitometry using Image lab software (Bio-Rad).
# [7] = test system: BCL-2, cycD1, pERK in Shy-SY5Y cells; assay: Western blot analysis of treated cells; assay type: cell-based, human; conditions: 20 μM, 24 hours
# [8] = test system: CXCR4-expressing malignancies; conditions: multiple myeloma, AML, CML, non-small cell lung cancer, metastatic breast cancer; cited from earlier work
substance,measurement,setting,value
4F-benzoyl-Arg-Arg-Nal-Cys-Tyr-Cit-Lys-DLys-Pro-Tyr-Arg-Cit-Cys-Arg-NH2 ({Benzoyl(4-F)}-RR[Nal]CY[Cit]K[dK]PYR[Cit]CR-NH2; not fully specified; printed as 4F-benzoyl-Arg-Arg-Nal-Cys-Tyr-Cit-Lys-DLys-Pro-Tyr-Arg-Cit-Cys-Arg-NH2; cysteine pairing not given here) [BL-8040],cell viability (viable cells counted),SK-N-BE(2) cells [1],decreased viability
same,cell viability (viable cells counted),Shy-SY5Y cells [2],decreased viability
same,colony formation,SK-N-BE(2) cells [3],reduces colony formation
same,colony formation,Shy-SY5Y cells [4],reduces colony formation
same,expression of miR-15a and its parent gene DLEU2 (gene chip array),"miR-15a, DLEU2",increased expression
same,BCL-2 mRNA in tumors (qPCR),[5],significantly downregulated
same,CCND1 mRNA in tumors (qPCR),[5],significantly downregulated
same,miR-15a level in tumors (qPCR),[5]; n=9,significantly elevated
same,miR-16-1 level in tumors (qPCR),[5]; n=9,significantly elevated
same,BCL-2 protein (western blot),[6],reduction
same,ERK phosphorylation (western blot),[6],decreased ERK phosphorylation
same,cycD1 protein (western blot),[6],reduction
same,BCL-2 protein (western blot),[7],reduction
same,ERK phosphorylation (western blot),[7],decreased ERK phosphorylation
same,cycD1 protein (western blot),[7],reduction
same,effects on CXCR4-expressing malignancies,[8],toxic effects
